Reference: ChEMBL document CHEMBL1126862, “Substituted 3-phenylpiperidines: new centrally acting dopamine autoreceptor antagonists” (J Med Chem, 1993)

Assays:
Rattus norvegicus [1] = assay: Evaluated for DOPA accumulation in striatum of nonpretreated rat at 25 umol / kg administered subcutaneously; format: functional
Rattus norvegicus [2] = assay: Evaluated for DOPA accumulation in limbic region of reserpine pretreated rat at 52 umol / kg administered subcutaneously; format: functional, Limbic system
Rattus norvegicus [3] = assay: Evaluated in rat accumbens for the effect on dopamine release and metabolism in brain dialysis model after administration of 50 umol / kg subcutaneously; format: functional
Rattus norvegicus [4] = assay: Evaluated for DOPA accumulation in striatum of nonpretreated rat at 100 umol / kg administered subcutaneously; format: functional
Rattus norvegicus [5] = assay: Evaluated in rat striatum for the effect on DOPAC release and metabolism in brain dialysis model after administration of 50 umol / kg subcutaneously; format: functional; set-up: unit not given beside the values
Rattus norvegicus [6] = assay: Evaluated for DOPA accumulation in limbic region of nonpretreated rat at 100 umol / kg administered subcutaneously; format: functional, Limbic system
D(2) dopamine receptor [7] = biological target: T1, D(2) dopamine receptor (Bos taurus, UniProt P20288); assay: Evaluated for binding towards Dopamine receptor D2 using [3H]-spiperone as radioligand, in cloned mammalian receptors expressed in CHO-K1 cells; format: cell-based
D(4) dopamine receptor [8] = biological target: T2, D(4) dopamine receptor (Homo sapiens, UniProt P21917); conditions: cho-k1
T2 sequence (P21917 whole entry): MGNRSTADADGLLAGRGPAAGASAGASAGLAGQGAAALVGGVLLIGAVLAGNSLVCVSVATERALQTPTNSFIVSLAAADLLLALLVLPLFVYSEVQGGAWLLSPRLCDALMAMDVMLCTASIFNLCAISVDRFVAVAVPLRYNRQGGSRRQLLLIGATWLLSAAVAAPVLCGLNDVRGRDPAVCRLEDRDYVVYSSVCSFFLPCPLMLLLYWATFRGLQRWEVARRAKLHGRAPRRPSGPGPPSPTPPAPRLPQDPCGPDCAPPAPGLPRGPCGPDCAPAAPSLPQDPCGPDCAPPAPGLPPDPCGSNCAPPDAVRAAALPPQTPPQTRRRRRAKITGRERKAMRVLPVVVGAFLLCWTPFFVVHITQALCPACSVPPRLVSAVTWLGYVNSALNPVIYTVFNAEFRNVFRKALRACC
Description: (§1) Binding towards dopamine receptor D4 expressed in CHO-K1 cells using [3H]spiperone

Rattus norvegicus [9] = assay: Evaluated in rat striatum for the effect on dopamine release and metabolism in brain dialysis model after administration of 50 umol / kg subcutaneously; format: functional; set-up: unit not given beside the values
Rattus norvegicus [10] = assay: Evaluated for DOPA accumulation in limbic region of nonpretreated rat at 25 umol / kg administered subcutaneously; format: functional, Limbic system
Rattus norvegicus [11] = organism: Rattus norvegicus; assay: Evaluated for rat locomotor activity in nonpretreated habituated rats at 25 umol / kg; format: functional
Rattus norvegicus [12] = organism: Rattus norvegicus; assay: Rat locomotor activity in reserpine pretreated rats and accumulated counts / 30 min is calculated; format: functional
D(2) dopamine receptor [13] = biological target: T3, D(2) dopamine receptor (Rattus norvegicus, UniProt P61169); assay: Evaluated for binding towards Dopamine receptor D2 using [3H]N-0437 as radioligand from rat striatal membrane
Rattus norvegicus [14] = organism: Rattus norvegicus; assay: Evaluated for rat locomotor activity in nonpretreated habituated rats at 100 umol / kg; format: functional; set-up: unit not given beside the values
D(2) dopamine receptor [15] = biological target: T1, D(2) dopamine receptor; assay: Binding towards Dopamine receptor D2 expressed in CHO-K1 cells using [3H]U-86170; format: cell-based
D(3) dopamine receptor = D(3) dopamine receptor (Homo sapiens, UniProt P35462)
Description: Binding towards Dopamine receptor D3 expressed in CHO-K1 cells using [3H]spiperone

Rattus norvegicus [16] = assay: Evaluated for DOPA accumulation in striatum of reserpine pretreated rat at 100 umol / kg administered intraperitoneally; format: functional
Rattus norvegicus [17] = assay: Evaluated for 5-HTP increase in limbic region of nonpretreated rat at 100 umol / kg administered subcutaneously; format: functional, Limbic system
[18] = biological target: T4, Sigma non-opioid intracellular receptor 1 (Rattus norvegicus, UniProt Q9R0C9); assay: Binding effinity for sigma receptor using 2 nM of [3H]DTG as radioligand, in membranes from brain minus cerebellum; format: tissue-based
D(2) dopamine receptor [19] = biological target: T3, D(2) dopamine receptor; assay: Binding towards Dopamine receptor D2 using [3H]spiperone from rat striatal membrane
Rattus norvegicus [20] = organism: Rattus norvegicus; assay: Evaluated for rat locomotor activity in nonpretreated habituated rats at 25 umol / kg (p<0.05); format: functional
Rattus norvegicus [21] = organism: Rattus norvegicus; assay: Evaluated for rat locomotor activity in nonhabituated rats at 25 umol / kg; format: functional
Rattus norvegicus [22] = organism: Rattus norvegicus; assay: Evaluated for rat locomotor activity in nonpretreated habituated rats at 100 umol / kg (p<0.05); format: functional
Rattus norvegicus [23] = assay: Evaluated for DOPA accumulation in striatum of nonpretreated rat at 100 umol / kg administered subcutaneously (p<0.05); format: functional
Rattus norvegicus [24] = organism: Rattus norvegicus; assay: Evaluated for rat locomotor activity in nonhabituated rats at 100 umol / kg; format: functional
Rattus norvegicus [25] = assay: Evaluated for DOPA accumulation in limbic region of nonpretreated rat at 100 umol / kg administered subcutaneously (p<0.05); format: functional, Limbic system
Rattus norvegicus [26] = assay: Evaluated for 5-HTP increase in hemisphere region of nonpretreated rat at 100 umol / kg administered subcutaneously (p<0.05); format: functional
Rattus norvegicus [27] = assay: Evaluated for DOPA accumulation in limbic region of reserpine pretreated rat at 100 umol / kg administered intraperitoneally (p<0.05); format: functional, Limbic system
Rattus norvegicus [28] = organism: Rattus norvegicus; assay: Rat locomotor activity in reserpine pretreated rats and accumulated counts / 30 min; format: functional
Rattus norvegicus [29] = assay: Evaluated for rat locomotor activity in nonhabituated rats at 213 umol / kg administered subcutaneously; format: functional
Rattus norvegicus [30] = assay: Evaluated for DOPA accumulation in limbic region of reserpine pretreated rat at 27 umol / kg administered subcutaneously; format: functional, Limbic system
Rattus norvegicus [31] = assay: Evaluated for 5-HTP increase in hemisphere region of nonpretreated rat at 27 umol / kg administered subcutaneously; format: functional
D(4) dopamine receptor [32] = biological target: T2, D(4) dopamine receptor
Description: as §1

Rattus norvegicus [33] = assay: Evaluated in rat accumbens for the effect on DOPAC release and metabolism in brain dialysis model after administration of 50 umol / kg subcutaneously; format: functional
Rattus norvegicus [34] = assay: Evaluated for 5-HTP increase in limbic region of nonpretreated rat at 27 umol / kg administered subcutaneously; format: functional, Limbic system
Rattus norvegicus [35] = assay: Evaluated for DOPA accumulation in striatum of nonpretreated rat at 52 umol / kg administered subcutaneously; format: functional
Rattus norvegicus [36] = assay: Evaluated for 5-HTP increase in hemisphere region of nonpretreated rat at 100 umol / kg administered subcutaneously; format: functional
Rattus norvegicus [37] = assay: Evaluated for 5-HTP increase in limbic region of nonpretreated rat at 52 umol / kg administered subcutaneously; format: functional, Limbic system
Rattus norvegicus [38] = assay: Evaluated for DOPA accumulation in limbic region of nonpretreated rat at 52 umol / kg administered subcutaneously; format: functional, Limbic system
Rattus norvegicus [39] = assay: Evaluated for DOPA accumulation in striatum of nonpretreated rat at 13 umol / kg administered subcutaneously; format: functional
Rattus norvegicus [40] = assay: Evaluated for rat locomotor activity in nonhabituated rats at 13 umol / kg administered intraperitoneally; format: functional
Rattus norvegicus [41] = assay: Evaluated for DOPA accumulation in limbic region of reserpine pretreated rat at 100 umol / kg administered intraperitoneally; format: functional, Limbic system
Rattus norvegicus [42] = assay: Evaluated for DOPA accumulation in limbic region of nonpretreated rat at 13 umol / kg administered subcutaneously; format: functional, Limbic system
Rattus norvegicus [43] = assay: Evaluated for DOPA accumulation in limbic region of nonpretreated rat at 200 umol / kg administered subcutaneously; format: functional, Limbic system
[44] = biological target: T4, Sigma non-opioid intracellular receptor 1; assay: Binding affinity for sigma receptor using 2 nM of [3H]DTG as radioligand, in membranes from brain minus cerebellum; format: tissue-based
Rattus norvegicus [45] = assay: Evaluated for rat locomotor activity in nonhabituated rats at 200 umol / kg administered subcutaneously; format: functional
Rattus norvegicus [46] = assay: Evaluated for 5-HTP increase in limbic region of nonpretreated rat at 200 umol / kg administered subcutaneously; format: functional, Limbic system
Rattus norvegicus [47] = assay: Evaluated for DOPA accumulation in striatum of nonpretreated rat at 200 umol / kg administered subcutaneously; format: functional
Rattus norvegicus [48] = assay: Evaluated for 5-HTP increase in hemisphere region of nonpretreated rat at 200 umol / kg administered subcutaneously; format: functional
Rattus norvegicus [49] = assay: Evaluated for rat locomotor activity in nonhabituated rats at 52 umol / kg administered subcutaneously; format: functional
Rattus norvegicus [50] = assay: Evaluated for DOPA accumulation in striatum of reserpine pretreated rat at 52 umol / kg administered subcutaneously; format: functional
Rattus norvegicus [51] = assay: Evaluated for rat locomotor activity in nonhabituated rats at 13 umol / kg administered subcutaneously; format: functional
Rattus norvegicus [52] = assay: Evaluated in rat accumbens for the effect onDOPAC release and metabolism in brain dialysis model after administration of 50 umol / kg subcutaneously; format: functional
[53] = Half life was estimated from the elimination phase of the blood concentration curves after peroral administration; format: ADME, organism-based; conditions: po

T4 sequence (Q9R0C9 whole entry): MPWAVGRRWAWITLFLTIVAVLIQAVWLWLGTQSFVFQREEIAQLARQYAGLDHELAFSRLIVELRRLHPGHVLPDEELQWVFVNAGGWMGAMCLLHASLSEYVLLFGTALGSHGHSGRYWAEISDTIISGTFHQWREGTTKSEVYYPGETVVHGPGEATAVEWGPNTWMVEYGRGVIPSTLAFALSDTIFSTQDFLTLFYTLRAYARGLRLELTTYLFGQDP
T3 sequence (P61169 whole entry): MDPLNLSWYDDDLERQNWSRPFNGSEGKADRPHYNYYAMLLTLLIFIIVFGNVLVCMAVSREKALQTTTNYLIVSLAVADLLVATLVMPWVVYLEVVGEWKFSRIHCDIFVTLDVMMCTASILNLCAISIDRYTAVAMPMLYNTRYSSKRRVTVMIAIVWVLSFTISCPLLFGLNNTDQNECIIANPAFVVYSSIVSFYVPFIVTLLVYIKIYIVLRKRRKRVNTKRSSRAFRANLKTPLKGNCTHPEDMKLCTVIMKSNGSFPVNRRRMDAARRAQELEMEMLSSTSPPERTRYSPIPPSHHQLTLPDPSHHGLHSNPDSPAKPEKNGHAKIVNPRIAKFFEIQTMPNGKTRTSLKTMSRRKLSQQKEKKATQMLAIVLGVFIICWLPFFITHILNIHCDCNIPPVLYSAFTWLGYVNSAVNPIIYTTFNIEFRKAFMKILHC
T1 sequence (P20288 whole entry): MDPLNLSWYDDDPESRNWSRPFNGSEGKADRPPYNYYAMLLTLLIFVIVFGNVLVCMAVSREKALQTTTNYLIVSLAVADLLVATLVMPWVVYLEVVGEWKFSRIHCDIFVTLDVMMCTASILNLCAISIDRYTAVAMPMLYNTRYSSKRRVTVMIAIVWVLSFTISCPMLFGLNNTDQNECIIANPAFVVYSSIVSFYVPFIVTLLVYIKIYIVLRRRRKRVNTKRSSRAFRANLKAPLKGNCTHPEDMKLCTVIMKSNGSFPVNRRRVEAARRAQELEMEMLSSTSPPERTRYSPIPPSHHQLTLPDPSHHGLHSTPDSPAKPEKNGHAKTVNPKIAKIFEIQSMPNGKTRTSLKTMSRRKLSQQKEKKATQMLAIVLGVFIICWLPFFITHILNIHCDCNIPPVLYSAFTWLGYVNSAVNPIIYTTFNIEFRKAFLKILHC
Chain of D(3) dopamine receptor (P35462 whole entry): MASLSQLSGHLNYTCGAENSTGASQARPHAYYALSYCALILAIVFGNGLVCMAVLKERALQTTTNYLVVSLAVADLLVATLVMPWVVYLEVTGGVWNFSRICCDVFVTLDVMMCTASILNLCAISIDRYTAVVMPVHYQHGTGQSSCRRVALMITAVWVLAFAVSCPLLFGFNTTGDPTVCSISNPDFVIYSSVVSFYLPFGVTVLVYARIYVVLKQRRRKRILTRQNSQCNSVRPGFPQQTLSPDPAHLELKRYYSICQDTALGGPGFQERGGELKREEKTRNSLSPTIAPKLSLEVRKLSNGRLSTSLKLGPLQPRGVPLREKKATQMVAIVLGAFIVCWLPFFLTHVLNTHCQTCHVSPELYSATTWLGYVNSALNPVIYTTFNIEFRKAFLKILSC

SMILES	Activity (Rattus norvegicus [1])	Activity (Rattus norvegicus [2])	Activity (Rattus norvegicus [3])	Activity (Rattus norvegicus [5])	Ki (D(2) dopamine receptor [7]) [nM]	Activity (Rattus norvegicus [9])	Activity (Rattus norvegicus [10])	Activity (Rattus norvegicus [11])	Activity (Rattus norvegicus [12])	Ki (D(2) dopamine receptor [13]) [nM]	Activity (Rattus norvegicus [14])	Ki (D(2) dopamine receptor [15]) [nM]	Ki (D(3) dopamine receptor) [nM]	Activity (Rattus norvegicus [16])	Activity (Rattus norvegicus [17])	IC50 [18] [nM]	Ki (D(2) dopamine receptor [19]) [nM]	Activity (Rattus norvegicus [21])	Activity (Rattus norvegicus [24])	Ki (D(4) dopamine receptor [32]) [nM]	other results
CCCN1CCCC(c2cccc(C#N)c2)C1 (single isomer, unassigned; (-))	285	136	294	299	889	295	204	418	12	396	719	119	249	105	148	2200	1140	–	–	–	Activity (Rattus norvegicus [4]): 268; Activity (Rattus norvegicus [6]): 219; Ki (D(4) dopamine receptor [8]): > 933 nM
CCCN1CCC[C@H](c2cccc(OS(=O)(=O)C(F)(F)F)c2)C1	92	–	–	–	–	–	93	–	–	–	–	–	–	80	86	6	–	115	95	–	Activity (Rattus norvegicus [20]): 30; Activity (Rattus norvegicus [22]): 34; Activity (Rattus norvegicus [23]): 80; Activity (Rattus norvegicus [25]): 82; Activity (Rattus norvegicus [26]): 86; Activity (Rattus norvegicus [27]): 75; Activity (Rattus norvegicus [28]): 2
CCCN1CCCC(c2cccc(O)c2)C1 (single isomer, unassigned; (-))	147	–	98	70	137	700	91	–	12	–	208	8.5	–	–	–	–	–	74	–	130	Activity (Rattus norvegicus [29]): 40; Activity (Rattus norvegicus [30]): 30; Activity (Rattus norvegicus [31]): 87; Activity (Rattus norvegicus [33]): 115; Activity (Rattus norvegicus [34]): 89
CCCN1CCCC(c2cccc(C#N)c2)C1 (racemic)	–	–	–	–	–	–	–	–	–	–	–	–	–	–	–	–	–	–	–	–	Activity (Rattus norvegicus [35]): 281; Activity (Rattus norvegicus [36]): 103; Activity (Rattus norvegicus [37]): 99; Activity (Rattus norvegicus [38]): 198
CCCN(CCC)[C@@H]1CCc2c(OC)cccc2[C@@H]1C	–	–	231	307	18	209	–	220	29	100	220	13	4	109	–	–	70	–	70	48	Activity (Rattus norvegicus [39]): 270; Activity (Rattus norvegicus [35]): 370; Activity (Rattus norvegicus [40]): 140; Activity (Rattus norvegicus [41]): 116; Activity (Rattus norvegicus [42]): 180; Activity (Rattus norvegicus [38]): 245; Activity (Rattus norvegicus [33]): 207
CCCN1CCCC(c2cccc(C#N)c2)C1 (single isomer, unassigned; (+))	84	93	–	–	> 2000	–	109	–	6	4900	559	1720	> 1420	81	–	–	12600	104	–	> 933	Activity (Rattus norvegicus [43]): 94; IC50 [44]: 520 nM; Activity (Rattus norvegicus [45]): 118; Activity (Rattus norvegicus [46]): 71; Activity (Rattus norvegicus [47]): 78; Activity (Rattus norvegicus [48]): 94
CCCN[C@@H]1CCc2c(OC)cccc2[C@@H]1C	–	108	313	315	158	285	–	300	11	300	350	145	26	–	–	–	530	–	–	117	Activity (Rattus norvegicus [49]): 159; Activity (Rattus norvegicus [39]): 330; Activity (Rattus norvegicus [35]): 400; Activity (Rattus norvegicus [50]): 102; Activity (Rattus norvegicus [51]): 155; Activity (Rattus norvegicus [42]): 223; Activity (Rattus norvegicus [38]): 253; Activity (Rattus norvegicus [52]): 235
CCCN1CCCC(c2cccc(O)c2)C1 (single isomer, unassigned; (+))	43	–	–	42	776	28	37	–	78	–	–	32	–	–	–	–	–	75	–	> 1000	Activity (Rattus norvegicus [29]): 230; Activity (Rattus norvegicus [41]): 18
CCCN1CCC[C@@H](c2cccc(OS(=O)(=O)C(F)(F)F)c2)C1	221	–	153	162	–	208	139	–	25	–	–	–	–	89	102	32	–	128	129	–	Activity (Rattus norvegicus [4]): 264; Activity (Rattus norvegicus [36]): 108; half-life [53]: 3.5 h; Activity (Rattus norvegicus [41]): 94; Activity (Rattus norvegicus [33]): 152
